Results as given in US20180296551A1, “METHODS AND COMPOSITIONS FOR TREATING NEURODEGENERATIVE DISEASES” (priority 2015, published 2018).

Assays:
SOD1-G93A mice [1] = test: Survival (time taken until death) of SOD1-G93A mice; type: in vivo
Description: Experimental set-up: 50 day old female SOD1-G93A mice were treated with either 5 mg/kg AMD3100 alone, 896 mg/kg Na-L-lactate alone or a combination of […] AMD3100 and 896 mg/kg Na-L-lactate twice a week, starting at 50 days old (for ALS), until death. All treatments were administered subcutaneously. The mice were weighed once a week following the various treatments and tested for motor function, also once a week. The time taken until death was recorded.
Experimental set-up: 50 day old female SOD1-G93A mice were treated with either 5 mg/kg AMD3100 alone or a complex of 0.25 mg/kg AMD3100+0.08 mg/kg Zinc or 0.125 mg/kg AMD3100+0.04 mg/kg Zinc twice a week, starting at 50 days old until death. All treatments were administered subcutaneously. The mice were weighed once a week following the various treatments and tested for motor function, also once a week. The time taken until death was recorded.
Experimental set-up: 50 day old male SOD1-G93A mice were treated with either 5 mg/kg AMD3100 alone or a complex of 0.5 mg/kg AMD3100+0.17 mg/kg Zinc+896 mg/kg lactate twice a week, starting at 50 days old, till death. All treatments were administered subcutaneously. The time taken until death was recorded.

AP = AP by ELISA in 3×Tg-AD mice; type: in vivo; details: membrane fraction, 0.5 mg/kg AMD3100 (+0.17 mg/kg Zn+896 mg/kg lactate), vs PBS
Description: Experimental set-up: 9 month old 3×Tg-AD mice were treated with PBS or 0.5 mg/kg AMD3100 or 0.5 mg/kg AMD3100 0.17 mg/kg Zn or 0.5 mg/kg AMD3100+0.17 mg/kg Zn+896 mg/kg lactate once a week. All treatments were administered subcutaneously. After 3 month of treatment, all mice were subjected to Y maze test in order to evaluate their cognitive function. Each mouse was allowed to explore two arms of the Y maze for 5 min, rested for another 5 min, and then explored all 3 arms of the Y maze for another 5 min.

MCT1 = details: female SOD1-G93A mice; 5 mg/kg AMD3100; spinal cord (FIG. 4A); vs control
Description: The control group is set to 100%. Results are mean ±S.E.M, T-test; *p<0.05.

SOD1-G93A mice [2] = details: SOD1-G93A transgenic mice; previously shown; cited from earlier work
SOD1-G93A mice [3] = details: SOD1-G93A transgenic mice; previously shown; cited from earlier work; remark: listed apart in the source
SOD1-G93A mice [4] = details: SOD1-G93A transgenic mice; previously shown; cited from earlier work; remark: listed apart in the source

## c1cc(CN2CCCNCCNCCCNCC2)ccc1CN1CCCNCCNCCCNCC1 [AMD3100, 1,1′-[1,4-phenylenebis(methylene)]bis [1,4,8,11-tetraazacyclotetradecane]]
SOD1-G93A mice [1]; female SOD1-G93A mice, 5 mg/kg AMD3100 s.c. twice a week from 50 days old
  median survival: 144 days
SOD1-G93A mice [1]; male SOD1-G93A mice, 5 mg/kg AMD3100 s.c. twice a week from 50 days old
  median survival: 140 days
AP
  AP change by ELISA: Reduction in AP was statistically significant
MCT1
  MCT1 levels: increase
SOD1-G93A mice [2]
  survival (in words): significantly increased
SOD1-G93A mice [3]
  motor function (in words): improved
SOD1-G93A mice [4]
  disease onset (in words): delayed

## C[C@H](O)C(=O)[O-].[Na+] [lactate, Na-L-lactate]
SOD1-G93A mice [1]; female SOD1-G93A mice, 896 mg/kg lactate s.c. twice a week from 50 days old
  median survival: 148 days
